From PubChem BioAssay AID602234 (The Scripps Research Institute Molecular Screening Center, 2012)
The source made the active and inactive calls. How the calls were made is not given here.

Test: SRC3 coactivator transcriptional activity inhibitors, dose response, counter-screen for SRC1 inhibitor project, cell-based, luminescence (AID 602234);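 further: HEK293 cells co-transfected with pGL4.31 reporter and pBIND-SRC3 fusion vector; potency for inhibition of reporter luminescence with Gossypol as full inhibition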
Settings: transfected HEK293 cells, counter-screen luciferase reporter

Compound	IC50
CC1CC(C)C(=NNC(N)=O)C(C(O)CC2CCC(=O)NC2=O)C1 (centres undefined)	7.99 µM
COc1ccc(-c2cnc(N)nc2-c2ccc(OC)cc2O)cc1	7.07 µM
O=C(CCC(=O)Nc1ccc(Br)cc1)N/N=C/c1ccccc1O	4.33 µM
CCc1c(C)nc2c(C)cccc2c1SCCC#N	13.6 µM (inactive)
COc1cc2c(cc1OC)C(C)N(C(=O)c1cccc([N+](=O)[O-])c1)CC2 (centres undefined)	7.27 µM
NNC(=O)c1cc2ccccc2cc1O	1.57 µM
NC(=O)c1cc(Sc2ccccc2)nc2ccccc12	10.9 µM (inactive)
O=C(CCl)N(c1ccccc1)C1CCS(=O)(=O)C1 (centres undefined)	1.74 µM
CC(C)(C)NC(=O)C1(C)CCC(=O)N1CCCn1ccnc1 (centres undefined)	4.51 µM
O=C(CCCc1nc(-c2ccccc2Cl)no1)NC1CCCC1	3.59 µM
CCCCCOc1ccc(/C=C/c2c([N+](=O)[O-])c(=O)n(C)c(=O)n2C)cc1	4.32 µM
CCOc1ccc(/C=C2\SC(=S)N(CCCC(=O)NCCCN3CCOCC3)C2=O)cc1	5.91 µM
Nc1ccc(-c2cc3ccccc3oc2=O)cc1	3.62 µM
O=C(NC1CCCCC1)C(c1cccnc1)N(C(=O)CCl)c1cccc(Cl)c1 (centres undefined)	0.503 µM
CCn1ccnc1CN(C)Cc1cn[nH]c1-c1ccc(F)cc1F	8.02 µM
Nc1ccn([C@@H]2O[C@H](CO)[C@@H](O)C2O)c(=O)n1 (some centres undefined)	7.53 µM
Cc1nc2c(-c3ccc(Cl)cc3)c(C)[nH]n2c(=O)c1Cc1ccccc1	4.49 µM
CN(C)C=Nc1c(C(=O)c2ccccc2)sc2nccc(N(C)C)c12	6.82 µM
O=[N+]([O-])c1ccc(N(CCO)CCO)c2c1no[n+]2[O-]	6.44 µM
O=C(CCCOc1ccc(Cl)cc1Cl)N/N=C/c1ccccc1O	6.32 µM
CCOC(=O)c1cccc2c1-c1ccccc1/C2=N/O	3.73 µM
CC(C)Cn1c(N)c(C(=O)COC(=O)c2cc3ccccc3cc2O)c(=O)n(C)c1=O	> 12 µM (inactive)

Compound	IC50
COC(CN(C(=O)CCl)C(C(=O)NC1CCCCC1)c1ccccc1C)OC (centres undefined)	3.76 µM
O=C1NCCc2c1[nH]c1ccc([N+](=O)[O-])cc21	8.25 µM
CNc1ncnc(Sc2nc(N)nc3nc[nH]c23)c1[N+](=O)[O-]	2.81 µM
CCC(C)(C)n1nnnc1CN1CCC(n2c(C)nc3cc(C(F)(F)F)ccc32)CC1	> 35.9 µM (inactive)
O=C1CCC/C1=c1\s/c(=C/c2cccnc2)c(=O)n1-c1ccccc1	6.2 µM
Cc1c(/C(O)=C2/C(=O)C(=O)N(Cc3cccnc3)C2c2ccccn2)cnn1-c1ccccc1 (centres undefined)	6.55 µM
CC(NC(=O)COC(=O)c1cccs1)c1ccccc1 (centres undefined)	> 35.9 µM (inactive)
CCOc1ccccc1-n1c(SCC(=O)Nc2ccccc2C(=O)O)nc2ccccc2c1=O	9.64 µM
C=CCn1c(Oc2ccccc2F)nc2c1c(=O)n(C)c(=O)n2C	3.36 µM
CC[C@@]1(O)C(=O)OCc2c1cc1n(c2=O)Cc2cc3c(NC(=O)CN)cccc3nc2-1	1.05 µM
CCn1c(Oc2cccc(Br)c2)nc2c1c(=O)n(C)c(=O)n2C	17 µM (inactive)
COc1cccc(/C=N/NC(=O)CNC(=O)C2COc3ccccc3O2)c1O (centres undefined)	4.31 µM
COc1ccccc1N(C(=O)CCl)c1cn(C(C)=O)c2ccccc12	3.76 µM
Nc1ccn(C2OC(CO)C(O)C2O)c(=O)n1 (centres undefined)	6.77 µM
O=C(O)c1ccccc1C(=O)Nc1ccc(Oc2cccc3ccccc23)cc1	> 35.9 µM (inactive)
COc1ccc2c(C#N)c3ccccn3c2c1	11.2 µM (inactive)
Cc1noc(/C=C/c2ccco2)c1S(=O)(=O)N1CCC(C(=O)Nc2ccc(Cl)cn2)CC1	11.3 µM (inactive)
CCOc1cccc(/C=N/NC(=O)c2cccnc2)c1O	9.67 µM
CCCc1cc(C(=O)N(C)CC(=O)Nc2ccc(OCC)c(OCC)c2)sc1C	> 35.9 µM (inactive)
Nc1ncccc1C(=O)OCC(=O)N1CCN(S(=O)(=O)c2ccc(Cl)cc2)CC1	8.27 µM
CCCCCCCC[n+]1c(C)n(-c2ccccc2)c2ccc(NC(C)=O)cc21	4.36 µM
CCOC(=O)CC(=O)CSc1nccc(-c2cccnc2)n1	18.4 µM (inactive)

Compound	IC50
Cc1cccn2c(=O)c3cc(C(=O)NCCN4CCOCC4)c(=N)n(Cc4cccnc4)c3nc12	12.7 µM (inactive)
CS(=O)(=O)Nc1cccc(NC(=O)C2Cc3c(-c4ccco4)ccnc3O2)c1 (centres undefined)	> 12 µM (inactive)
COc1ccc(-n2cnc3c(sc4nccc(N(C)C)c43)c2=O)cc1	11 µM (inactive)
CCc1nc(N)nc(N)c1-c1ccc(Cl)c([N+](=O)[O-])c1	0.95 µM
O=C(Nc1cccc2c1CCCC2)c1cc([N+](=O)[O-])ccc1Cl	3.47 µM
O=C(N/N=C(\c1ccccc1)c1ccccn1)c1ccccc1Cl	4.57 µM
CCOc1cccc(/C=N/NC(=O)c2cc(C3CC3)[nH]n2)c1O	14.8 µM (inactive)
O=C(N/N=C/c1coc2ccc(Cl)cc2c1=O)c1ccc(O)cc1	3.61 µM
COc1ccc(OC)c(/C=C2\NC(=O)NC2=O)c1	5.99 µM
O=C(NC(NC(=S)N1CCOCC1)C(Cl)(Cl)Cl)c1ccc(Cl)cc1 (centres undefined)	3.94 µM
S=C(Nc1ccccc1)Nc1ccc(OCc2ccc(Cl)cc2Cl)cc1	1.39 µM
COc1cc(/C=C2\SC(N)=NC2=O)cc(OC)c1	7.14 µM
Cc1ccc(OCC(=O)c2cc(C)n(Cc3cccs3)c2C)c([N+](=O)[O-])n1	5.23 µM
COc1ccc2ncn(-c3ccccc3)c2c1	2.99 µM
O=C1CCC2S/C(=C/Nc3ccc(C(F)(F)F)cc3)C(=O)N12 (centres undefined)	7.25 µM
O=C(Nc1ccncc1)c1ccccc1[N+](=O)[O-]	4.77 µM
CCN(C(=O)c1cccc(S(=O)(=O)N(C)C)c1)C12CC3CC(CC(C3)C1)C2	13.8 µM (inactive)
COc1ccc(/C=C2\CC/C(=C\c3ccc(OC)c(OC)c3)C2=O)cc1OC	5.96 µM
N#Cc1c2ccc(O)cc2n2ccccc12	1.38 µM
O=C(N/N=C/c1ccc(O)cc1O)/C(=C/c1ccccc1)CCO	5.37 µM
CC1(C)Cc2c(ccc3ccccc23)C(=O)N1	3.21 µM
OCCN(CCO)CC(O)COc1ccc(C23CC4CC(CC(C4)C2)C3)cc1 (centres undefined)	12.1 µM (inactive)

Compound	IC50
C=CCNc1ncnc2ccc(Br)cc12	2.3 µM
CC(C)(C)c1cc(C(=O)N/N=C/c2ccc(O)cc2)n(-c2ccccc2)n1	27.1 µM (inactive)
COc1cccc(/C=N/NC(=O)C(=O)Nc2ccccc2OC(F)(F)C(F)F)c1O	5.65 µM
O=C(O)CN1C(=O)/C(=C\c2ccccc2OCc2ccc(Cl)cc2Cl)SC1=S	11 µM (inactive)
CC(=O)/C(N=Nc1ccc2c(c1)OCCO2)=C(\C)O	3.11 µM
COc1ccc(Oc2nc3c(c(=O)n(C)c(=O)n3C)n2C)cc1	7.76 µM
COc1ccc(Cc2nnc(SCc3ccc([N+](=O)[O-])cc3)o2)cc1	5.53 µM
COc1ccc(CNc2ncc(-c3ccc(F)cc3)n2C)c2ccccc12	11.6 µM (inactive)
CN(Cc1cnc2nc(N)nc(N)c2n1)c1ccc(C(=O)NC(CCC(=O)O)C(=O)O)c2ccccc12 (centres undefined)	0.0186 µM
Cc1ccc2nc(C(F)(F)F)c(C#N)c(N)c2c1	5.13 µM
CC(=O)NC(c1cc(Cl)c2cccnc2c1O)C1CC1 (centres undefined)	6.13 µM
COC(=O)c1sc2cnccc2c1N	8.34 µM
COc1ccc(Nc2ncnc3ccc(C)cc23)cc1	2.62 µM
Cc1ccc2occ(/C=N/NC(=O)c3ccncc3)c(=O)c2c1	15.3 µM (inactive)
CC(=O)NC(c1cc(Cl)c2cccnc2c1O)C(C)C (centres undefined)	6.32 µM
Cc1ccc(NC(=O)C2CCN(c3ncnc4sc(C)c(C)c34)CC2)cc1S(=O)(=O)N(C)C	> 12 µM (inactive)
O=C(Nc1c(-c2ccccc2)[nH][nH]c1=O)c1cccc(C(F)(F)F)c1	> 35.8 µM (inactive)
O=C(OC(c1ccccc1)c1nccc2ccccc12)c1ccccc1 (centres undefined)	0.661 µM
CN(CC(=O)Nc1ccc(Cl)c(C(F)(F)F)c1)C(=O)C1CC(=O)N(c2ccc3c(c2)OCCO3)C1 (centres undefined)	7.04 µM
CC(=O)N1CCN(c2ccc(Oc3ncnc4sccc34)cc2)CC1	4.79 µM
CCN(CC)CCNC(=O)c1ccc(NC(=O)C2CCN(c3ncnc4sc(C)c(C)c34)CC2)cc1	3.94 µM
Cc1cccc(C)c1-n1nnnc1C(c1cccs1)N1CCC2(CC1)C(=O)NCN2c1ccccc1 (centres undefined)	18.9 µM (inactive)

Compound	IC50
COc1cc(C2c3cc4c(cc3C(OC3OC5COC(c6cccs6)OC5C(O)C3O)C3COC(=O)C23)OCO4)cc(OC)c1O (centres undefined)	0.0913 µM
CCOC(=O)CSc1cc(-c2ccccc2)nc2ncnn12	> 35.9 µM (inactive)
COC(=O)c1cccc2c1-c1ccccc1/C2=N/O	2.57 µM
O=C(Nc1cccc(Cl)c1)Nc1nnc(-c2ccncc2)s1	3.62 µM
CNc1cccnc1C=NNC(N)=S	0.522 µM
Cc1sc2ncnc(N3CCC(C(=O)Nc4cc(S(C)(=O)=O)ccc4Cl)CC3)c2c1C	10.1 µM (inactive)
COc1cccc(NC(=O)CN(C)CC(=O)Nc2ccc(Cl)cc2[N+](=O)[O-])c1	17.8 µM (inactive)
Cc1cccc(C)c1-c1ccc(CN2C(CC(C)C)C(=O)N(Cc3cn(CC4CCCCC4)nn3)CCS2(=O)=O)cc1 (centres undefined)	8.2 µM
O=C(CSc1nc(-c2cccs2)cc(C(F)(F)F)n1)Nc1cc(OCC(F)(F)C(F)F)cc([N+](=O)[O-])c1	> 35.9 µM (inactive)
CCN(C(=O)c1cc(S(=O)(=O)N2CCCCC2)c[nH]1)c1ccc(OC)cc1	8 µM
CCn1c(Oc2ccc(F)cc2)nc2c1c(=O)n(C)c(=O)n2C	3.24 µM
Cn1c(=O)c2[nH]c(COc3ccc(C(C)(C)C)cc3)nc2n(C)c1=O	3.85 µM
O=C(CCl)N1N=C(c2ccco2)CC1c1cccs1 (centres undefined)	0.694 µM
Cc1ccc(C)c(NC(=O)c2ccccc2NS(=O)(=O)c2cc([N+](=O)[O-])ccc2C)c1	1.44 µM
O=C(CCl)NC(Cc1ccccc1)c1ccccc1 (centres undefined)	6.42 µM
CCOc1ccc(-c2noc(CCC(=O)O)n2)cc1	15.2 µM (inactive)
NC(=S)NN=Cc1ccc(OC(=O)COc2cc(Cl)c(Cl)cc2Cl)cn1	7.06 µM
CC(=O)c1cccc(NC(=O)COc2cc3oc(=O)c(CC(C)O)c(C)c3cc2Cl)c1 (centres undefined)	6.25 µM
Cc1cc(=O)[nH]c(Nc2cccc(Br)c2)n1	6.81 µM
CC1CCCCN1c1ncnc2ccccc12 (centres undefined)	8.39 µM
CN(C)c1ccc(Nc2ncnc3ccc(Br)cc23)cc1	2.09 µM
